In patent US12011459B2, “Methods for manufacturing T cells by direct sorting and compositions thereof” (Immatics US, Inc., priority 2019, dated 2024):
Values joined by “and” are separate entries in the source; they are usually repeats but may differ in a detail not shown here. Equal entries are not always repeated.

What was measured:
[1] = system: αCol6A3 T cells spiked in PBMC (1:1×10^5); assay: Col6A3-002 2D tetramer staining of αCol6A3 T cells spiked in PBMC, condition #1; assay type: cell-based; conditions: staining at 37° C.
Experimental: Condition #1: with DAS treatment+irrelevant peptide tetramer mix, staining at 37° C.
Sample #2: αCol6A3 T cells spiked in PBMC (1:1×10^5), about 2×10^6 CD45+cells acquired

PBMC = assay: Col6A3-002 2D tetramer staining of PBMC with dasatinib treatment, flow cytometry; assay type: cell-based, human; conditions: for 2D PE/BV421 Tet-positive and irrelevant peptide APC tetramer-negative events: 4° C.
Experimental: To compare the effects of PKI and temperatures on pMHC multimer staining, healthy donor peripheral blood mononuclear cells (PBMCs) were pretreated with 50 nM Dasatinib (FIG. 21A) or untreated (FIG. 21B) and then stained with two Col6A3-002 peptide (FLLDGSANV (SEQ ID NO: 141)) (Col) tetramers (2Dtet) conjugated to streptavidin BV421 and PE, and five different irrelevant APC tetramers (peptide 1, peptide 2, peptide 3, peptide 4, and peptide 5) at either 37° C. (FIG. 21A) or room-temperature (RT) (FIG. 21B) for 30 minutes. Following tetramer staining, samples were counterstained with tetramer stabilizing antibodies staining against PE and APC at 4° C., followed by staining with anti-CD45 PE-Cy7 antibody at 4° C.
To determine which staining conditions that may provide lowest background and lowest false positive rate, PBMC were stained with or without PKI treatment, e.g., dasatinib (DAS), with or without irrelevant peptide tetramer mix at different tetramer staining temperatures (Hadrup et al., Nat. Methods, 2009, 6:520-526; the content of which is hereby incorporated by reference in its entirety). For example, PBMC cells were stained with 2D Tet (PE+BV421) in the presence or in the absence of irrelevant peptide tetramer mix, e.g., five different irrelevant peptides (e.g., Col6A3-015 (YLMDDFSSL (SEQ ID NO: 16)), MAG-003 (KVLEHVVRV (SEQ ID NO: 118)), MAGEC2-001 (TLDEKVAEL (SEQ ID NO: 161)), MXRA5-003 (LLWGHPRVALA (SEQ ID NO: 18), and MAGEA1-003 (KVLEYVIKV (SEQ ID NO: 105)) APC tetramers±DAS treatment, at 37° C. or at room temperature (RT). DAS treatments were performed at 37° C.
To investigate PBMC staining under conditions D and G, PBMC (12.5×10^6 cells/ml) obtained from 4 donors were stained±DAS treatment (50 nM, at 37° C.), Col6A3-002 BV421 tetramer (3 μg/ml) and Col6A3-002 PE Tetramer (2.5 μg/ml), fluorochrome-labeled anti-CD45 antibody, e.g., PE-Cy7 mouse anti-human CD45 (BD Biosciences), Col6A3-002 BV421 tetramer (3 μg/ml), and APC irrelevant peptides (n=5, e.g., Col6A3-015 (YLMDDFSSL (SEQ ID NO: 16)), MAG-003 (KVLEHWRV (SEQ ID NO: 118)), MAGEC2-001 (TLDEKVAEL (SEQ ID NO: 161)), MXRA5-003 (LLWGHPRVALA (SEQ ID NO: 18), and MAGEA1-003 (KVLEYVIKV (SEQ ID NO: 105)) tetramer mix (3 μg/ml) with all staining, spins, and washes at 4° C.
The experiments shown in FIGS. 37A-37D were repeated using a different fluorochrome-labeled anti-CD45 antibody, e.g., PE-Cy™7 mouse anti-human CD45 (BD Biosciences). PBMC (10×10^6 cells/nil) obtained from 4 donors were stained with or without DAS treatment (50 nM, at 37° C.), BV421 (3 μg/ml), Col6A3-002 2D Tet (PE+BV421) (2.5 μg/ml), PerCP-Cy™5.5 mouse anti-human CD45 (BD Biosciences), Col6A3-002 BV421 tetramer (3 μg/ml), and APC (n=5) irrelevant tetramer mix (3 μg/ml) with all staining, spins, and washes at 4° C.

[2] = system: Col6A3 REP1 cells (αCol6A3 T cells); assay: Col6A3-002 2D tetramer staining of Col6A3 REP1 cells with dasatinib treatment, flow cytometry; assay type: cell-based; conditions: for background staining of BV421/APC double-positive irrelevant peptide T cells (Q2): bench and centrifugation at 4° C.
Experimental: To determine which staining conditions that may provide higher staining index (SI), indicating better separation of cells stained positive from cells stained negative, and lower false negative rate, Col6A3 REP1 cells, which were prepared by rapid expansion protocol (REP), were stained±DAS treatment (at 37° C.), ±irrelevant peptide tetramer mix, and staining at RT or 37° C.
Staining index (SI) may be calculated by using formula (I): SI=(mean PE+mean BV421 2Dtet+)−(mean PE+mean BV421 2Dtet−)/2×(SD PE+SD BV421 2Dtet−). […] (P=0.316695), and ±irrelevant peptide tetramer mix (P=0.597223).
The estimation per 1×10^6 based on flow %, which indicates numbers of peptide-specific T cells per 1×10^6 of CD45+ cells, may be calculated by the formula: (2Dtet+%×1×10^6/100)−((2Dtet+%×1×10^6/100)×irrelevant peptide tetramer mix+%/100)). Table 14 summarizes the estimations under the staining conditions A-G. DAS treatment was performed at 37° C. for 30 minutes.

[3] = system: Col6A3 REP1 cells (αCol6A3 T cells); assay: as above; assay type: cell-based; conditions: Col6A3 PEP1 cells
[4] = DAS treatment + irrelevant peptide tetramer mix
[5] = PBMC, DAS treatment, staining at RT, with irrelevant peptide APC tetramer mix
[6] = DAS treatment, staining at 37° C., with irrelevant peptide APC tetramer mix, listed as DAS
[7] = DAS treatment, staining at RT, with irrelevant peptide APC tetramer mix

Cc1nc(Nc2ncc(C(=O)Nc3c(C)cccc3Cl)s2)cc(N2CCN(CCO)CC2)n1 [Dasatinib, dasatinib]
2D PE/BV421 Tet double-positive cells (Q2) of CD45+ cells [1, 4]: 0.035% | APC-negative/BV421-positive cells (true αCol6A3 T cells, Q1) in Q2 cells [1, 4]: about 2.58% | BV421/APC double-positive irrelevant peptide T cells in Q2 cells [1, 4]: 97.4% | one αCol6A3 T cell in N CD45+ cells [1, 4]: 1×10^5 CD45+ cells | 2D PE/BV421 Tet-positive and irrelevant peptide APC tetramer-negative events ([1]; in 2×10^6 CD45+ cells acquired, DAS): 18 events | 2D PE/BV421 Tet-positive and irrelevant peptide APC tetramer-negative events (PBMC; PBMC sample S1, in 1.29×10^7 lymphocytes acquired, DAS): 128 events | 2D PE/BV421 Tet-positive and irrelevant peptide APC tetramer-negative events (PBMC; PBMC sample S2, in 6.09×10^6 lymphocytes acquired, DAS): 68 events | 2D PE/BV421 Tet-positive and irrelevant peptide APC tetramer-negative events (PBMC; PBMC sample S3, in 9.71×10^5 lymphocytes acquired, DAS): 23 events | 2D PE/BV421 Tet-positive and irrelevant peptide APC tetramer-negative events (PBMC; PBMC sample S4, in 5.35×10^6 lymphocytes acquired, DAS): 80 events | 2D Tet (PE+BV421) double-positive cells (Q2) of CD45+ cells (PBMC; PBMC, 50 nM dasatinib treatment, Tet staining at 37° C., with irrelevant peptide APC tetramer mix): 0.027% | 2D Tet (PE+BV421) double-positive cells (Q2) of CD45+ cells (PBMC; PBMC, DAS 50 nM at 37° C., all staining, spins, washes at 4° C., with irrelevant mix, FIG. 37A): 4.23E-3% | 2D Tet (PE+BV421)-positive and irrelevant peptide-negative cells in Q2 cells (PBMC; PBMC, DAS 50 nM, all staining, spins, washes at 4° C., FIG. 37A): 46.5% | 2D Tet (PE+BV421) double-positive cells (Q2) of CD45+ cells (PBMC; PBMC, DAS treatment, staining at 37° C., absence of irrelevant peptide APC tetramer mix): 0.19% | APC-negative/BV421-positive cells (true Col6A3-specific T cells, Q1) in Q2 cells (PBMC; PBMC, DAS treatment, staining at 37° C., with irrelevant peptide APC tetramer mix): 0.93% | irrelevant peptide positive T cells in the BV421/PE double-positive (Q2) cells (PBMC; PBMC, DAS treatment, staining at 37° C., with irrelevant peptide APC tetramer mix, listed as DAS): 98.2% and 99.1% | 2D Tet (PE+BV421) double-positive cells (Q2) of CD45+ cells (PBMC; PBMC, DAS treatment, staining at RT, absence of irrelevant peptide APC tetramer mix): 7.17E-3% | 2D Tet (PE+BV421) double-positive cells (Q2) of CD45+ cells (PBMC; [5]): 8.04E-3% | APC-negative/BV421-positive cells (true Col6A3-specific T cells, Q1) in Q2 cells (PBMC; [5]): about 4.76% | irrelevant peptide positive T cells in the BV421/PE double-positive (Q2) cells (PBMC; [5]): 95.2% | final frequency: one Col Tet+ T cell in N CD45+ cells (PBMC; PBMC, dasatinib treatment, staining at 37° C., with irrelevant APC tetramers): 4×10^5 CD45+ cells | 2D PE/BV421 Tet-positive and irrelevant peptide APC tetramer-negative events (PBMC; PBMC, in 4.78×10^6 lymphocytes acquired, DAS): 94 events | increase of MFI (PBMC; in ¼ of DAS-treated samples): about 2 × | 2D PE/BV421 Tet-positive and irrelevant peptide APC tetramer-negative cells detected (PBMC; only PBMC, in 2×10^6 CD45+ cells acquired, DAS, staining at 37° C.): 5 cells | irrelevant peptide positive T cells in Q2 cells [2, 6]: 6.38% and 3.18% | staining index (SI) [2, 6]: 19.0 and 15.6 | 2D Tet (PE+BV421) double-positive cells (Q2) of CD45+ cells [2, 7]: 55.8% | APC-negative/BV421-positive cells (true Col6A3 REP1 cells, Q1) in Q2 cells [2, 7]: about 78.4% | irrelevant peptide positive T cells in Q2 cells [2, 7]: 21.6% | staining index (SI) [2, 7]: 24.0 | Estimation per 1e6 based on flow % (peptide-specific T cells per 1×10^6 CD45+ cells) ([2]; condition A: Dasatinib +, Tet stain 37, bench RT, centrifuge RT): 2.24 × 10^5 per 1e6 | background staining of BV421/APC double-positive irrelevant peptide T cells (Q2) ([2]; condition C: DAS, Tet staining at 37° C.): 2.01% | Estimation per 1e6 based on flow % (peptide-specific T cells per 1×10^6 CD45+ cells) ([2]; condition C: Dasatinib +, Tet stain 37, bench 4, centrifuge 4): 5.61 × 10^5 per 1e6 | background staining of BV421/APC double-positive irrelevant peptide T cells (Q2) ([2]; condition D: DAS, Tet staining): 13.7% | Estimation per 1e6 based on flow % (peptide-specific T cells per 1×10^6 CD45+ cells) ([2]; condition D: Dasatinib +, Tet stain 4, bench 4, centrifuge 4): 6.75 × 10^5 per 1e6 | background staining of BV421/APC double-positive irrelevant peptide T cells (Q2) ([2]; condition F: DAS, Tet staining at RT): 3.07% | Estimation per 1e6 based on flow % (peptide-specific T cells per 1×10^6 CD45+ cells) ([2]; condition F: Dasatinib +, Tet stain RT, bench 4, centrifuge 4): 6.75 × 10^5 per 1e6 | 2D Tet (PE+BV421)-positive and irrelevant peptide-negative cells in Q2 cells ([3]; DAS treatment, 4° C., FIG. 39): 95.8% | 2D Tet (PE+BV421) double-positive cells (Q2) of CD45+ cells ([3]; DAS treatment, all staining, spins, washes at 4° C., FIG. 39): 68.9% | 2D PE/BV421 Tet-positive and irrelevant peptide APC tetramer-negative events ([3]; in 206055 lymphocytes acquired, DAS, 4° C.): 135941 events
